Test results: US20080152694A1, “Devices, Systems and Methods for Ophthalmic Drug Delivery” (priority 2006, published 2008)
Converted amounts (≈) assume the structure as drawn.

Columns and labels:
[1] = Dissolution of gacyclidine base pellets in a continuous flow reactor, eluted with Ringer's solution containing hydrochloric acid; type: physicochemical; conditions: for pH of the eluted drug solution: 20 μL/hr, room temperature (23±2° C.)
Experimental: A drug chamber similar to the one illustrated in FIG. 5 was loaded with 11 pellets of gacyclidine base having a combined mass of 18 mg. This drug-loaded chamber was eluted at a flow rate of 20 μL/hr at room temperature (23±2° C.) using a MiniMed 508 syringe pump (available from Medtronics MiniMed of Northridge, Calif.). The syringe was loaded with 3 mL of Ringer's solution containing 0.05 to 3 mM hydrochloric acid. The eluted volume was collected in PTFE tubing attached to the pump drug capsule assembly, after a 3-D antibacterial filter. The pH of this solution was determined by use of a pH meter equipped with a Calomel electrode. Drug concentration was determined by HPLC.
The highest pH of the eluted drug solution (5.9) was obtained at 0.05 mM hydrochloric acid, and the lowest pH of the eluted drug solution (5.6) was obtained at 3 mM hydrochloric acid. These pH values indicate quantitative conversion of the hydrochloric acid to the drug salt and are consistent with the pH expected for solutions of the hydrochloride salt.

[2] = Stability of gacyclidine forms in the presence of water; type: physicochemical; conditions: body temperature / in the presence of water
From the text: (§1) An advantage of using solid drug in an implanted device is, in at least some embodiments, the ability to store drug in the device using a smaller volume than might be required if a premixed (or other liquid) form of the drug were used. In some cases, this smaller volume enables implantation of a device containing enough drug to provide (when combined with an appropriate vehicle source) substantially continuous long term therapy. This long term therapy can be over a period of days, weeks, or months. In some cases, long term therapy may extend over several years. One example of a basic crystalline or solid amorphous drug suitable for use in methods according to some embodiments is gacyclidine. For example, it is estimated that 18 mg of solid gacyclidine eroded with an appropriate vehicle will deliver 100 μM drug over 4 years at a flow rate of 20 microliters per hour or less. […] Dissolution of the basic form of gacyclidine in water requires the presence of an acid (e.g., hydrochloric acid or lactic acid) to convert the basic form to the water-soluble acidic form. The concentration of gacyclidine in solution will therefore depend on the amount of acid available to convert the basic form to the acid form. […]

[3] = Water solubility of gacyclidine forms; type: physicochemical
From the text: as §1

[4] = cited from earlier work
[5] = type: physicochemical; conditions: solid pellets exposed to a continuous stream of vehicle such as Ringer's solution
Experimental: Triamcinolone acetonide is commercially available as a crystalline solid with very low water solubility. If solid pellets of triamcinolone acetonide are exposed to a continuous stream of a vehicle, such as Ringer's solution, the expected concentration of extracted triamcinolone acetonide in solution should be 40 μM or less. A higher concentration of triamcinolone acetonide can be solubilized by including an amphipathic molecule in the vehicle. Such a pharmaceutically acceptable amphipathic molecule would be polysorbate 80 (e.g., TWEEN 80®). The concentration of triamcinolone acetonide solubilized can be increased above its water solubility, 40 μM, by adding the required amount of amphipathic molecule to the vehicle that will support the desired drug concentration. The invention is not limited to methods implemented through use of triamcinolone acetonide, Ringer's solution or polysorbate 80. Any sparingly soluble drug, pharmaceutically acceptable vehicle and pharmaceutically acceptable amphipathic molecule can be used.

CC1CCCCC1(c1cccs1)N1CCCCC1 (stereo not shown) [gacyclidine]
correlation in gacyclidine concentration per hydrochloric acid concentration used for elution ([1]; 0.05 to 3 mM hydrochloric acid in Ringer's solution, drug concentration by HPLC, FIG. 27): 0.976±0.049 | pH of the eluted drug solution ([1]; Ringer's solution with 0.05 mM hydrochloric acid, highest pH): 5.9 | pH of the eluted drug solution ([1]; Ringer's solution with 3 mM hydrochloric acid, lowest pH): 5.6 | intercept at zero concentration of hydrochloric acid (gacyclidine concentration) ([1]; linear fit of eluted gacyclidine concentration vs hydrochloric acid concentration, FIG. 27): 0.0014 ± 0.0061 mM | stability (in words) [2]: much more stable than its acidic form | water solubility (in words) [3]: sparingly soluble in water

C[C@H]1CCCC[C@@]1(c1cccs1)N1CCCCC1.Cl [hydrochloride salt of gacyclidine, gacyclidine hydrochloride]
stability (in words) [2]: unstable at body temperature | water solubility (in words) [3]: highly water soluble

CC1(C)O[C@@H]2C[C@H]3[C@@H]4CCC5=CC(=O)C=C[C@]5(C)[C@@]4(F)[C@@H](O)C[C@]3(C)[C@]2(C(=O)CO)O1 [triamcinolone acetonide]
water solubility [4]: 40 µM (≈ 17.4 µg/mL) | expected concentration of extracted triamcinolone acetonide in solution [5]: ≤ 40 µM
